From patent publication US11970542B2, “Bispecific antibodies specific for treating hematological malignancies” (FRED HUTCHINSON CANCER CENTER, priority 2017, dated 2024)

What was measured:
[1] = tested on: surface BCMA on MM cell lines (RPMI8226, U266B1, MM1.R, H929) and primary MM samples; test: Effect of GSI on BCMA expression, flow cytometry; format: cell-based, human
Description: FIGS. 11A-11D. Dose dependent effect of the gamma secretase inhibitor, R04929097, on BCMA expression on 4 MM cell lines (11A, 11B) and 7 primary MM samples (11C, 11D). (11A) Surface BCMA expression by MM.1R cells cultured with the indicated concentrations of R04929097; staining with anti-BCMA antibody (black lines) compared to isotype control (grey line). (11B) Fold-change in surface BCMA expression by MM cell lines when cultured with the indicated concentrations of R04929097; fold change indicated relative to untreated MM cells of the same line. (11C) Surface BCMA expression by primary patient MM cells cultured with the indicated concentrations of R04929097. Staining was as described in regard to FIG. 11A. (11D) Fold change in BCMA on primary myeloma cells (n=7) cultured with vary amounts of GSI for […]. Primary and cell lines were cultured at 0.5×10^6 cells/mL. Fold change in BCMA is defined as Treated (MFIBCMA-MFIiso)/Control (MFIBCMA-MFIiso). Data is representative of 3 independent experiments with T cells derived from different donors.
The effect of GSI on BCMA expression was evaluated by incubating four MM cell lines (RPMI8226, U266B1, MM1.R, and H929) and primary MM samples in media containing 0 (DMSO), 0.01, 0.1, and 1.0 μM of GSI and measuring surface BCMA at 5 hr. […] These concentrations are 3-30 fold below the serum levels that are achieved by well tolerated oral dosing regimens of GSI in phase 1 trials in cancer patients.

[2] = tested on: surface BCMA on three multiple myeloma cells lines; test: Antibody Binding Capacity assay (QuantiBrite), BCMA molecules; format: cell-based, human; details: 5 μM, 17 hours incubation
Procedure: FIG. 13. Antibody Binding Capacity assay (QuantiBrite, Cat. No. 340495, BD Biosciences) was used according to manufacturer instructions to measure the absolute number of BCMA molecules on the self-surface and accessible to antibody binding following 17 hours incubation in the presence or absence of 5 μM gamma secretase inhibitor (R04929097) on three multiple myeloma cells lines.

[3] = Blood clearance time course of BCMA bispecific with or without GSI; parameters: species or system mice; details: mouse, in vivo
Description: FIG. 15. To ensure our clearing agent was able to effectively clear unbound agent from the blood stream, we conducted a time course experiment to test the impact of the clearing agent on the BCMA bispecific in the presence or absence of GSI. The percent of the injected dose (% ID) was monitored in the blood during a time course experiment by measuring the relative amount of Yttrium^90 in blood samples obtained from mice.

[4] = tested on: CD38 receptor expression in MM cell lines (U266, H929 and L363); test: ATRA effect on CD38 receptor expression in vitro; format: cell-based, human
Description: FIG. 12. […] These studies generated data to refine the process of manipulating CD38 receptor density for the purpose of increasing targeted delivery of radiolabeled DOTA-biotin after CD38 tumor cell pretargeting.

[5] = tested on: surface CD38 on three multiple myeloma cells lines; test: Antibody Binding Capacity assay (QuantiBrite), CD38 molecules; format: cell-based, human; details: 65-72 hours treatment
Procedure: FIG. 14. Antibody Binding Capacity assay (QuantiBrite, BD Biosciences) was used according to manufacturer instructions to measure the absolute number of CD38 molecules on the self-surface and accessible to antibody binding following 65-72 hours treatment of ATRA on three multiple myeloma cells lines.

## CC(C)(C(=O)NCC(F)(F)C(F)(F)F)C(=O)N[C@@H]1C(=O)Nc2ccccc2-c2ccccc21 [R04929097]
[1]; 0.01, 0.1, and 1.0 μM, 5 hr
  effect on cell viability: did not affect cell viability
[1]; 0.01-1.0 μM tested, 5 hr
  concentration of maximal increase in MFI of BCMA staining: 1.0 µM
[1]; 0.1 and 1.0 μM
  soluble BCMA levels: decline in soluble BCMA levels
[1]; all 4 cell lines and primary MM cells, 5 hr
  change in MFI of BCMA staining: marked increase
[1]; time course
  time to upregulation of BCMA after GSI exposure: ≤ 1 h
[2]
  number of BCMA molecules on the cell surface: upregulates surface BCMA target expression
[3]
  blood clearance of BCMA bispecific fusion in combination with GSI: further facilitated blood clearance

## CC1=C(/C=C/C(C)=C/C=C/C(C)=C/C(=O)O)C(C)(C)CCC1 [ATRA, all-trans retinoic acid]
[4]; U266 MM line, solubilized ATRA
  CD38 receptor expression: striking dose dependent increase in expression
[4]; three MM cell lines (U266, H929 and L363)
  CD38 receptor expression: dose dependent increase
[5]
  number of CD38 molecules on the cell surface: upregulates surface CD38 target expression
